ED50 data for 48 compounds are collected here from patent US4839374A, “4-((Bicyclic heterocyclyl)-methyl and -hetero)-piperidines” (Janssen Pharmaceutica, N.V., priority 1987, dated 1989).

This experiment concerns compound 48/80-induced lethality. Kind of experiment: Protection of rats from compound 48/80-induced lethality. The note with it: Rattus norvegicus, 4 h, read-out: Compound 48/80 lethality test in rats ED50, s.c. or p.o. 1 h before compound 48/80 0.5 mg/kg i.v.; protection of 50% of animals, survival after 4 hours. The format is in vivo, rats of an inbred Wistar strain. As to the method: Protection of rats from compound 48/80-induced lethality
The protection from compound 48/80-induced lethal circulatory collapse appears to be a simple way of evaluating quantitatively the antihistaminic activity of test compounds. Male rats of an inbred Wistar strain, weighing 240-260 g were used in the experiment. After overnight starvation the rats were transferred to conditioned laboratories (temp.=21±1° C., relative humidity=65+5%). The rats were treated subcutaneously or orally with a test compound or with the solvent (NaCl solution, 0.9%). […] Survival after 4 hours is therefore considered to be a safe criterion of a protective effect of drug administration. The ED50 -values of the compounds of formula (I) are listed in the first column of tables 1 to 4. Said ED50 -values are the values in mg/kg body weight at which the tested compounds protect 50% of the tested animals against compound 48/80-induced lethality. The compounds of formula (I) and the pharmaceutically acceptable acid addition salts thereof are also potent serotonin-antagonists. The potency of the subject compounds as serotonin-antagonists is clearly evidenced by the results obtained in the following tests wherein the antagonistic activity of the subject compounds on the effect of serotonin is examined.
As to `CC(C)NC(=O)CN1CCC(Cc2nc3ccccc3n2Cc2ccc(F)cc2)CC1` [Compound 134], the ED50 was 0.04 mg/kg.

Turning to `COc1ccc(CCN2CCC(Cc3nc4cccnc4n3Cc3ccccn3)CC2)cc1` [Compound 234], the ED50 is 0.02 mg/kg. As to `c1cnc(NCCN2CCC(Cc3nc4cccnc4n3Cc3ccco3)CC2)nc1` [Compound 339], the ED50 is 0.01 mg/kg. In the case of `Fc1ccc(Cn2c(OC3CCN(CCOc4ncccn4)CC3)nc3ccccc32)cc1` [Compound 390, 1-[(4-fluorophenyl)methyl]-2-[[1-[2-(2-pyrimidinyloxy)ethyl]-4-piperidinyl]oxy]-1H-benzimidazole], the ED50 was found to be 0.04 mg/kg. As to `Fc1ccc(Cn2c(CC3CCN(CCc4cccs4)CC3)nc3cccnc32)cc1` [Compound 117], the ED50 came to 0.01 mg/kg. As for `Cc1nc2n(c(=O)c1CCN1CCC(Cc3nc4ccccc4n3Cc3ccco3)CC1)CCS2` [Compound 163], the ED50 turned out to be 0.02 mg/kg. Regarding `CC(C)N1CCC(Cc2nc3cnccc3n2Cc2ccc(F)cc2)CC1` [Compound 100], the ED50 was 0.16 mg/kg. In the case of `Fc1ccc(Cn2c(CC3CCN(CCNc4ncnc5[nH]cnc45)CC3)nc3ccccc32)cc1` [Compound 370], the ED50 is 0.02 mg/kg.

As for `Cc1nc2n(c(=O)c1CCN1CCC(Cc3nc4ccccc4n3Cc3ccc(F)cc3)CC1)CCCS2` [Compound 158], the ED50 is 0.04 mg/kg. For the compound `O=c1[nH]c2ccccc2n1CCCN1CCC(Sc2nc3ccccc3n2Cc2ccc(F)cc2)CC1` [Compound 255], the ED50 stood at 0.16 mg/kg.

`c1coc(Cn2c(CC3CCN(CCNc4nccs4)CC3)nc3cccnc32)c1` [Compound 352, 4-[[3-(2-furanylmethyl)-3H-imidazo[4,5-b]pyridin-2-yl]methyl]-N-(2-thiazolyl)-1-piperidineethanamine]: the ED50 was found to be 0.01 mg/kg. As for `CN1CCC(Cc2nc3ccccc3n2Cc2ccccc2)CC1` [Compound 93], the ED50 came out at 0.04 mg/kg. With `Fc1ccc(Cn2c(CC3CCN(CCOCc4ccccn4)CC3)nc3cccnc32)cc1` [Compound 394, 3-[(4-fluorophenyl)methyl]-2-[[1-[2-(2-pyridinylmethoxy)ethyl]-4-piperidinyl]-methyl]-3H-imidazol[4,5-b]pyridine], the ED50 amounted to 0.02 mg/kg. As to `Fc1ccc(Cn2c(CC3CCN(CCNc4ccncn4)CC3)nc3ccccc32)cc1` [Compound 501], the ED50 is 0.04 mg/kg.

With `c1csc(Cn2c(CC3CCNCC3)nc3ccccc32)c1` [Compound 64, 2-(4-piperidinylmethyl)-1-(2-thienylmethyl)-1H-benzimidazole], the ED50 amounted to 0.04 mg/kg. For the compound `O=c1oc2ccccc2cc1CCN1CCC(Cc2nc3ccccc3n2Cc2ccco2)CC1` [Compound 165], the ED50 was 0.02 mg/kg. With `COc1ccc(CCN2CCC(Cc3nc4ccncc4n3Cc3ccc(F)cc3)CC2)cc1` [Compound 204, 3-[(4-fluorophenyl)methyl]-2-[[1-[2-(4-methoxyphenyl)ethyl]-4-piperidinyl]methyl]-3H-imidazo-[4,5-c]pyridine] the figure was 0.08 mg/kg; with `COc1ccc(CCN2CCC(Cc3nc4ccccc4n3Cc3ccc(C)o3)CC2)cc1` [Compound 266], 0.04 mg/kg. Take `COc1ccc(Cn2c(CC3CCN(CCO)CC3)nc3ccccc32)cc1` [Compound 110, 4-[[1-[(4-methoxyphenyl)methyl]-1H-benzimidazol-2-yl]methyl]-1-piperidineethanol]: the ED50 was 0.02 mg/kg. Turning to `COc1ccc(CCN2CCC(Cc3nc4ncccc4n3Cc3ccc(F)cc3)CC2)cc1` [Compound 203, 1-[(4-fluorophenyl)methyl]-2-[[1-[2-(4-methoxyphenyl)ethyl]-4-piperidinyl]methyl]-1H-imidazo-[4,5-b]pyridine], the ED50 is 0.04 mg/kg. Turning to `CN1CCC(Sc2nc3ccccc3n2Cc2ccc(F)cc2)CC1` [Compound 96], the ED50 was determined as 0.04 mg/kg. As to `Cc1nc2scc(C)n2c(=O)c1CCN1CCC(Cc2nc3ccccc3n2Cc2ccco2)CC1` [Compound 216], the ED50 amounted to 0.04 mg/kg. For the compound `Cc1nc2n(c(=O)c1CCN1CCC(Cc3nc4cccnc4n3Cc3ccco3)CC1)CCCS2` [Compound 178], the ED50 stood at 0.02 mg/kg.

Consider `O=c1oc2ccccc2cc1CCN1CCC(Cc2nc3ccccc3n2Cc2ccc(F)cc2)CC1` [Compound 161], for which the ED50 amounted to 0.04 mg/kg.

For the compound `O=c1[nH]c2ccccc2n1CCCN1CCC(Cc2nc3cccnc3n2Cc2cccs2)CC1` [Compound 215], the ED50 turned out to be 0.08 mg/kg. Take `CN1CCC(Cc2nc3ccccc3n2Cc2ccco2)CC1` [Compound 86]: the ED50 amounted to 0.01 mg/kg. As to `Cc1nc2ccccn2c(=O)c1CCN1CCC(Cc2nc3cccnc3n2Cc2ccccn2)CC1` [Compound 256], the ED50 came to 0.08 mg/kg. As to `OC(COc1ccc2ccccc2c1)CN1CCC(Cc2nc3ccccc3n2Cc2ccc(F)cc2)CC1` (stereo not drawn) [Compound 116, 4-[[1-[(4-fluorophenyl)methyl]-1H-benzimidazol-2-yl]methyl]-α-[(2-naphthalenyloxy)methyl]-1-piperidineethanol], the ED50 came out at 0.16 mg/kg.

For `O=C(NCCN1CCC(Cc2nc3ccccc3n2Cc2ccc(F)cc2)CC1)c1ccoc1` [Compound 434, N-[2-[4-[[1-[(4-fluorophenyl)methyl]-1H-benzimidazol-2-yl]methyl]-1-piperidinyl]ethyl]-3-furancarboxamide], the ED50 was found to be 0.0025 mg/kg. For the compound `OCCN1CCC(Cc2nc3cccnc3n2Cc2ccc(F)cc2)CC1` [Compound 115, 4-[[3-[(4-fluorophenyl)methyl]-3H-imidazo[4,5-b]pyridin-2-yl]methyl]-1-piperidineethanol], the ED50 is 0.16 mg/kg.

Take `CCOC(=O)NCCN1CCC(Sc2nc3ccccc3n2Cc2ccc(F)cc2)CC1` [Compound 243, ethyl [2-[4-[[1-[(4-fluorophenyl)methyl]-1H-benzimidazol-2-yl]-thio]-1-piperidinyl)ethyl]carbamate]: the ED50 was determined as 0.04 mg/kg. Consider `Fc1ccc(Cn2c(SC3CCN(CCNc4ncccn4)CC3)nc3ccccc32)cc1` [Compound 333, N-[2-[4-[[1-[(4-fluorophenyl)methyl]-1H-benzimidazol-2-yl]thio]-1-piperidinyl]ethyl]-2-pyrimidinamine], for which the ED50 stood at 0.04 mg/kg. Take `OCCN1CCC(Sc2nc3ccccc3n2Cc2ccc(F)cc2)CC1` [Compound 104, 4-[[1-[(4-fluorophenyl)-methyl]-1H-benzimidazol-2-yl]thio]-1-piperidineethanol]: the ED50 was 0.08 mg/kg. As for `Fc1ccc(Cn2c(CC3CCNCC3)nc3ncccc32)cc1` [Compound 48, 1-[(4-fluorophenyl)methyl]-2-(4-piperidinylmethyl)-1H-imidazo[4,5-b]-pyridine], the ED50 came to 0.16 mg/kg.

For the compound `Nc1ccccc1C(=O)NCCN1CCC(Oc2nc3ccccc3n2Cc2ccc(F)cc2)CC1` [Compound 480, 2-amino-N-[2-[4-[[1-[(4-fluorophenyl)methyl]-1H-benzimidazol-2-yl]oxy]-1-piperidinyl]ethyl]benzamide], the ED50 came out at 0.02 mg/kg. The result for `CC(=O)N(C)c1ccccc1C(=O)NCCN1CCC(Cc2nc3ccccc3n2Cc2ccco2)CC1` [Compound 511] reads 0.16 mg/kg; that for `Cc1ccc(Cn2c(CC3CCN(CCO)CC3)nc3ccccc32)cc1` [Compound 113, 4-[[1-[(4-methylphenyl)methyl]-1H-benzimidazol-2-yl]methyl]-1-piperidineethanol], 0.08 mg/kg; that for `O=c1cc[nH]c(=O)n1CCN1CCC(Cc2nc3ccccc3n2Cc2ccco2)CC1` [Compound 175], 0.02 mg/kg. The result for `COc1ccc(CCN2CCC(Cc3nc4ccccc4n3Cc3ccccc3F)CC2)cc1` [Compound 515, 1-[(2-fluorophenyl)methyl]-2-[[1-[2-(4-methoxyphenyl)ethyl]-4-piperidinyl]-methyl]-1H-benzimidazole] reads 0.16 mg/kg; that for `O=c1oc2ccccc2cc1CCN1CCC(Cc2nc3ccccc3n2Cc2cscn2)CC1` [Compound 265], 0.02 mg/kg. For `Cc1ccc(Cn2c(CC3CCN(CCNc4nccs4)CC3)nc3ccccc32)cc1` [Compound 364], the ED50 came to 0.04 mg/kg. In the case of `c1ccc(Cn2c(CC3CCN(CCNc4ncccn4)CC3)nc3cccnc32)cc1` [Compound 345], the ED50 was 0.08 mg/kg. For `COc1ccc(CCN2CC[C@@H](Oc3nc4ccccc4n3Cc3ccc(F)cc3)[C@H](C)C2)cc1` (relative stereo) [Compound 268], the ED50 worked out at 0.16 mg/kg.

With `CC(C)N1CCC(Cc2nc3cccnc3n2Cc2ccc(F)cc2)CC1` [Compound 89], the ED50 worked out at 0.04 mg/kg. In the case of `Fc1ccc(Cn2c(CC3CCN(Cc4ccccc4)CC3)nc3ccncc32)cc1` [Compound 25, 3-[(4-fluorophenyl)methyl]-2-[[1-(phenylmethyl)-4-piperidinyl]-methyl]-3H-imidazo[4,5-c]pyridine], the ED50 worked out at 0.16 mg/kg. In the case of `C=CCN1CCC(Cc2nc3cccnc3n2Cc2ccc(F)cc2)CC1` [Compound 142, 3-[(4-fluorophenyl)methyl]-2-[[1-(2-propenyl)-4-piperidinyl]methyl]-3H-imidazo-[4,5-b]pyridine], the ED50 came out at 0.02 mg/kg. `Cc1nc2ccccn2c(=O)c1CCN1CCC(Cc2nc3cnccc3n2Cc2ccc(F)cc2)CC1` [Compound 274]: the ED50 came out at 0.16 mg/kg. As to `c1cnc(NCCN2CCC(Cc3nc4ccccc4n3Cc3cscn3)CC2)nc1` [Compound 338], the ED50 came to 0.02 mg/kg.
